According to the NIST ThermoML archive (doi:10.1021/je5007407):
Where “and” joins values, the source holds several entries; their conditions need not be identical. Equal values may be shown once. ± gives the expanded uncertainty stated by the source.

Assay: xn = mol fraction of the nth substance listed
Settings: Gas, Frequency=2 MHz, Pulse-echo method

CCC [propane] + O=C=O
Settings	speed of sound
248.59 K, 8020 kPa, x2 = 0.9981	802.3 ± 1.1 m/s
248.59 K, 8030 kPa, x2 = 0.9981	802.3 ± 1.1 m/s
248.59 K, 14980 kPa, x2 = 0.9981	856.8 ± 1 m/s
248.59 K, 24990 kPa, x2 = 0.9981	923 ± 1 m/s
248.59 K, 50040 kPa, x2 = 0.9981	1051.1 ± 1 m/s
248.59 K, 74970 kPa, x2 = 0.9981	1149.9 ± 1 m/s
248.59 K, 100010 kPa, x2 = 0.9981	1233.1 ± 1.1 m/s
248.59 K, 124970 kPa, x2 = 0.9981	1303.8 ± 1.1 m/s
248.59 K, 150040 kPa, x2 = 0.9981	1367.4 ± 1.2 m/s
248.88 K, 8270 kPa, x2 = 0.9376	799.4 ± 1.1 m/s
248.88 K, 15030 kPa, x2 = 0.9376	855.4 ± 1.1 m/s
248.88 K, 25030 kPa, x2 = 0.9376	924.8 ± 1 m/s
248.88 K, 49910 kPa, x2 = 0.9376	1056.8 ± 1 m/s
248.88 K, 75000 kPa, x2 = 0.9376	1159.3 ± 1.1 m/s
248.88 K, 100010 kPa, x2 = 0.9376	1246.2 ± 1.1 m/s
248.88 K, 125000 kPa, x2 = 0.9376	1320.1 ± 1.1 m/s
248.88 K, 149990 kPa, x2 = 0.9376	1385.8 ± 1.2 m/s
248.88 K, 174980 kPa, x2 = 0.9376	1447.1 ± 1.2 m/s
249.03 K, 7920 kPa, x2 = 0.9683	797.2 ± 1.1 m/s and 796.4 ± 1.1 m/s
249.03 K, 14790 kPa, x2 = 0.9683	852.8 ± 1.1 m/s
249.03 K, 25010 kPa, x2 = 0.9683	922.3 ± 1 m/s
249.03 K, 49980 kPa, x2 = 0.9683	1052.6 ± 1 m/s
249.03 K, 75760 kPa, x2 = 0.9683	1155.3 ± 1.1 m/s
249.03 K, 100410 kPa, x2 = 0.9683	1239.6 ± 1.1 m/s
249.03 K, 125280 kPa, x2 = 0.9683	1312.1 ± 1.1 m/s
249.03 K, 150010 kPa, x2 = 0.9683	1377.4 ± 1.2 m/s
251.21 K, 8050 kPa, x2 = 0.9907	786.8 ± 1.1 m/s
251.21 K, 8120 kPa, x2 = 0.9907	787.6 ± 1.1 m/s
251.21 K, 15010 kPa, x2 = 0.9907	844.2 ± 1.1 m/s
251.21 K, 25270 kPa, x2 = 0.9907	913.8 ± 1 m/s
251.21 K, 50770 kPa, x2 = 0.9907	1045.7 ± 1 m/s
251.21 K, 75170 kPa, x2 = 0.9907	1143.2 ± 1 m/s
251.21 K, 101430 kPa, x2 = 0.9907	1230.8 ± 1.1 m/s
251.21 K, 124940 kPa, x2 = 0.9907	1299.1 ± 1.1 m/s
251.21 K, 150910 kPa, x2 = 0.9907	1366.3 ± 1.2 m/s
273.25 K, 8170 kPa, x2 = 0.9376	614.5 ± 1.5 m/s
273.25 K, 8180 kPa, x2 = 0.9376	614.8 ± 1.5 m/s
273.25 K, 15190 kPa, x2 = 0.9376	699.7 ± 1.2 m/s
273.25 K, 24920 kPa, x2 = 0.9376	787.4 ± 1 m/s
273.25 K, 50000 kPa, x2 = 0.9376	946.5 ± 1 m/s
273.25 K, 75020 kPa, x2 = 0.9376	1062.2 ± 1 m/s
273.25 K, 100040 kPa, x2 = 0.9376	1155.2 ± 1 m/s
273.25 K, 125010 kPa, x2 = 0.9376	1236.3 ± 1.1 m/s
273.25 K, 150000 kPa, x2 = 0.9376	1305.4 ± 1.1 m/s
273.25 K, 175050 kPa, x2 = 0.9376	1369.6 ± 1.2 m/s
273.25 K, 200000 kPa, x2 = 0.9376	1428.5 ± 1.2 m/s
273.34 K, 8010 kPa, x2 = 0.9683	610.5 ± 1.3 m/s and 610.9 ± 1.3 m/s
273.34 K, 14920 kPa, x2 = 0.9683	694.4 ± 1.2 m/s
273.34 K, 25000 kPa, x2 = 0.9683	785 ± 1 m/s
273.34 K, 50050 kPa, x2 = 0.9683	942.8 ± 1 m/s
273.34 K, 75530 kPa, x2 = 0.9683	1058.9 ± 1 m/s
273.34 K, 100060 kPa, x2 = 0.9683	1149.4 ± 1 m/s
273.34 K, 125060 kPa, x2 = 0.9683	1229.3 ± 1.1 m/s
273.34 K, 148510 kPa, x2 = 0.9683	1293.7 ± 1.1 m/s
273.34 K, 175030 kPa, x2 = 0.9683	1360.3 ± 1.2 m/s
273.34 K, 200040 kPa, x2 = 0.9683	1417.3 ± 1.2 m/s
273.39 K, 8050 kPa, x2 = 0.9907	613.9 ± 1.3 m/s
273.39 K, 8070 kPa, x2 = 0.9907	614 ± 1.3 m/s
273.39 K, 15140 kPa, x2 = 0.9907	698.1 ± 1.2 m/s
273.39 K, 25280 kPa, x2 = 0.9907	787.2 ± 1 m/s
273.39 K, 50080 kPa, x2 = 0.9907	941.2 ± 1 m/s
273.39 K, 75540 kPa, x2 = 0.9907	1055.9 ± 1 m/s
273.39 K, 100080 kPa, x2 = 0.9907	1145.5 ± 1 m/s
273.39 K, 125360 kPa, x2 = 0.9907	1225.5 ± 1.1 m/s
273.39 K, 150170 kPa, x2 = 0.9907	1292.3 ± 1.1 m/s
273.39 K, 174970 kPa, x2 = 0.9907	1354.8 ± 1.2 m/s
273.39 K, 199910 kPa, x2 = 0.9907	1410.8 ± 1.2 m/s
273.41 K, 15200 kPa, x2 = 0.9981	699 ± 1.1 m/s
273.41 K, 15230 kPa, x2 = 0.9981	699 ± 1.1 m/s
273.41 K, 25030 kPa, x2 = 0.9981	785.6 ± 1 m/s
273.41 K, 50020 kPa, x2 = 0.9981	939.4 ± 1 m/s
273.41 K, 75010 kPa, x2 = 0.9981	1052.3 ± 1 m/s
273.41 K, 100020 kPa, x2 = 0.9981	1143.6 ± 1 m/s
273.41 K, 124950 kPa, x2 = 0.9981	1220.2 ± 1.1 m/s
273.41 K, 150010 kPa, x2 = 0.9981	1288.3 ± 1.1 m/s
273.41 K, 174990 kPa, x2 = 0.9981	1349.1 ± 1.2 m/s
273.41 K, 200000 kPa, x2 = 0.9981	1404.5 ± 1.2 m/s
298.13 K, 25110 kPa, x2 = 0.9907	654.1 ± 0.9 m/s
298.13 K, 25180 kPa, x2 = 0.9907	653.9 ± 0.9 m/s
298.13 K, 50020 kPa, x2 = 0.9907	837.8 ± 1 m/s
298.13 K, 50040 kPa, x2 = 0.9981	837.4 ± 0.9 m/s and 837.3 ± 0.9 m/s
298.13 K, 74940 kPa, x2 = 0.9981	962.5 ± 0.9 m/s
298.13 K, 75230 kPa, x2 = 0.9907	965 ± 1 m/s
298.13 K, 100020 kPa, x2 = 0.9981	1061.9 ± 1 m/s
298.13 K, 100100 kPa, x2 = 0.9907	1064 ± 1 m/s
298.13 K, 124970 kPa, x2 = 0.9907	1147.9 ± 1 m/s
298.13 K, 125020 kPa, x2 = 0.9981	1145.5 ± 1 m/s
298.13 K, 149790 kPa, x2 = 0.9907	1220.2 ± 1.1 m/s
298.13 K, 150010 kPa, x2 = 0.9981	1219.2 ± 1.1 m/s
298.13 K, 174530 kPa, x2 = 0.9907	1285.6 ± 1.1 m/s
298.13 K, 174980 kPa, x2 = 0.9981	1285.5 ± 1.1 m/s
298.13 K, 200010 kPa, x2 = 0.9981	1346.1 ± 1.2 m/s
298.13 K, 200530 kPa, x2 = 0.9907	1346.2 ± 1.2 m/s
298.14 K, 14950 kPa, x2 = 0.9683	531.8 ± 1.3 m/s
298.14 K, 14960 kPa, x2 = 0.9683	532.2 ± 1.3 m/s
298.14 K, 24980 kPa, x2 = 0.9683	654.5 ± 1 m/s
298.14 K, 50050 kPa, x2 = 0.9683	841.6 ± 1 m/s
298.14 K, 74950 kPa, x2 = 0.9683	969 ± 1 m/s
298.14 K, 100060 kPa, x2 = 0.9683	1070 ± 1 m/s
298.14 K, 125000 kPa, x2 = 0.9683	1154.1 ± 1 m/s
298.14 K, 150290 kPa, x2 = 0.9683	1228.9 ± 1.1 m/s
298.14 K, 175030 kPa, x2 = 0.9683	1294.1 ± 1.1 m/s
298.14 K, 200020 kPa, x2 = 0.9683	1354.1 ± 1.2 m/s
298.18 K, 8210 kPa, x2 = 0.9376	388.5 ± 2.4 m/s
298.18 K, 15120 kPa, x2 = 0.9376	538.7 ± 1.7 m/s and 538.6 ± 1.7 m/s
298.18 K, 24990 kPa, x2 = 0.9376	659 ± 1 m/s
298.18 K, 49980 kPa, x2 = 0.9376	846.6 ± 1 m/s
298.18 K, 75090 kPa, x2 = 0.9376	975.1 ± 1 m/s
